The text below walks through data of patent US9809623B2, “α4β7 peptide monomer and dimer antagonists” (Protagonist Therapeutics, Inc., priority 2014, dated 2017).

Numbered stars: 1 amine (or outer) side, 2 acyl side, 3 side chain; on linkers, the order of the positions; unused ones are H or OH. Bridge positions count the residues as written; N and C are the ends. Square brackets hold non-standard residues; d marks the D form. Peptide text beside a SMILES is read from it. I, II: the chains in the order shown. X4 = O=C(CCOCCOCCOCCOCCOCCOCCOCCOCCOCCOCCOCCOCCOCCOCCC(=O)[*:2])[*:1]; Phe(4-COOH) = N[C@@H](Cc1ccc(C(=O)O)cc1)C(=O)O; Phe(4-tBu) = CC(C)(C)c1ccc(C[C@H](N)C(=O)O)cc1; Bip = N[C@@H](Cc1ccc(-c2ccccc2)cc1)C(=O)O; 1Nal = N[C@@H](Cc1cccc2ccccc12)C(=O)O; 2Nal = N[C@@H](Cc1ccc2ccccc2c1)C(=O)O; Diglycolyl = O=C(COCC(=O)[*:2])[*:1]; NMeR = CN[C@@H](CCCNC(=N)N)C(=O)O; Tic = O=C(O)[C@@H]1Cc2ccccc2CN1; β3hE = N[C@@H](CCC(=O)O)CC(=O)O; NMeK = CN[C@@H](CCCCN)C(=O)O; Pen = CC(C)(S)[C@H](N)C(=O)O

α4β7, sequence (P13612 34-1032): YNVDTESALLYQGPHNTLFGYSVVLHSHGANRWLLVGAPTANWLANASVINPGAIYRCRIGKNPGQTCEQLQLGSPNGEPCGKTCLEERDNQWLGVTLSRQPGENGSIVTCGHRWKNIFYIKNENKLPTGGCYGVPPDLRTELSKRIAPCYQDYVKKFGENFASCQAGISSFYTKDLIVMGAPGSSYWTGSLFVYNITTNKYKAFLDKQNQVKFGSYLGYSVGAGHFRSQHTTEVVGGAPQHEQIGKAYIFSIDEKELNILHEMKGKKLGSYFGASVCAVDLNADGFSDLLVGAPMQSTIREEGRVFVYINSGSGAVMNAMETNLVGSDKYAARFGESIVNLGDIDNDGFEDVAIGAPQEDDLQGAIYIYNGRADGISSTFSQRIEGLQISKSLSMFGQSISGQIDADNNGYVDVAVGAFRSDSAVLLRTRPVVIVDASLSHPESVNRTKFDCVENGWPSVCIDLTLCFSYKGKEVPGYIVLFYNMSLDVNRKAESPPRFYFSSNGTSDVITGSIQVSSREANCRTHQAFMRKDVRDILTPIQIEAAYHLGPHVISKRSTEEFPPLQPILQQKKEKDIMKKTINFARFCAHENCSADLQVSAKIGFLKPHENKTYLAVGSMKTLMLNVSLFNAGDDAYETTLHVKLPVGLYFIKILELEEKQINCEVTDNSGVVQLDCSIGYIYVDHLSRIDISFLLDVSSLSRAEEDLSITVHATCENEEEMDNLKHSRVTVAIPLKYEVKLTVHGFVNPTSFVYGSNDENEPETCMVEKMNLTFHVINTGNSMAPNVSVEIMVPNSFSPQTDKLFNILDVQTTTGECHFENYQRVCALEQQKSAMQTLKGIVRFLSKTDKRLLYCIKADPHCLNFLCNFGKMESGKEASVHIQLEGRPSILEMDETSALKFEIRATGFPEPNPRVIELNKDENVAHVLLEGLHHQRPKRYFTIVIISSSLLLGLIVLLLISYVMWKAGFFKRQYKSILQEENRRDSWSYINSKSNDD
α4β7, sequence (P26010 20-798): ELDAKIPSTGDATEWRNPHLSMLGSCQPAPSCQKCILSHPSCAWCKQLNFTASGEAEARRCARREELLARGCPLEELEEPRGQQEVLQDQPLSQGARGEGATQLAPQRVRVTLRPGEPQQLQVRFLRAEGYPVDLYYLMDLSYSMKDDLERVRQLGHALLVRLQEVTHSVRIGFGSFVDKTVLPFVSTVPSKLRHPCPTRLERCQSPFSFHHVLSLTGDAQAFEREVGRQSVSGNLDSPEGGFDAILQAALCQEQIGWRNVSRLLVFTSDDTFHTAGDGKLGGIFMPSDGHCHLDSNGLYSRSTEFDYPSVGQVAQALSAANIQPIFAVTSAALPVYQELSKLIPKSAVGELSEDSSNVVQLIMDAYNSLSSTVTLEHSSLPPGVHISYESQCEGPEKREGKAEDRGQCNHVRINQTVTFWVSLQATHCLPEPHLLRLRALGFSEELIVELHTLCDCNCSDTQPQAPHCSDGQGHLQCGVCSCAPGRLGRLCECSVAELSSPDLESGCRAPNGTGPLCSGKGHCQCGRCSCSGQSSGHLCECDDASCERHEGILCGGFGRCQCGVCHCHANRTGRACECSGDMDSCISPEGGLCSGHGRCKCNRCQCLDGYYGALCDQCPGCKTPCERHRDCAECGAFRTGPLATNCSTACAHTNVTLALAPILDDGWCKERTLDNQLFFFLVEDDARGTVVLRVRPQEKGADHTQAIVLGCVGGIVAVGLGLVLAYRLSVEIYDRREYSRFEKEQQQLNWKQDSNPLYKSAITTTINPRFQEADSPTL

For this assay, the target named is α4β7 (Homo sapiens, UniProt P13612+P26010). The experiment in a line: α4β7-MAdCAM Cell Adhesion Assay (RPMI 8866 human cells). In kind it is cell-based. On the set-up: host or cells: RPMI 8866 human B lymphoblastoid cells. As to conditions: Table 3-B, Potency (α4β7); range classes; read-out: α4β7 cell (Hu) IC50. Put shortly:
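Washed RPMI 8866 cells (200,000/well) in DMEM with 0.1% BSA, 10 mM HEPES pH 7, 1 mM MnCl2 adhered to rh MAdCAM-1/Fc-coated wells with serially diluted peptides, 30-45 min at 37 °C. After three washes, bound cells quantified by MTT, A570, cell-free background subtracted for dose response.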
In general, IC50 refers to the concentration at which inhibition is half-maximal. Take `CC(=O)N[C@@H]1C(=O)N(C)[C@@H](CCCNC(=N)N)C(=O)N[C@@H](CO)C(=O)N[C@@H](CC(=O)O)C(=O)N[C@@H]([C@@H](C)O)C(=O)N[C@@H](CC(C)C)C(=O)N[C@H](C(=O)N[C@@H](Cc2ccc(C(=O)O)cc2)C(=O)N[C@H](CCC(=O)O)C(=O)N[C@H](CCCCNC(=O)COCC(=O)NCCCC[C@@H](NC(=O)[C@@H](CCC(=O)O)NC(=O)[C@H](Cc2ccc(C(=O)O)cc2)NC(=O)[C@H]2NC(=O)[C@H](CC(C)C)NC(=O)[C@H]([C@@H](C)O)NC(=O)[C@H](CC(=O)O)NC(=O)[C@H](CO)NC(=O)[C@H](CCCNC(=N)N)N(C)C(=O)[C@@H](NC(C)=O)C(C)(C)SSC2(C)C)C(N)=O)C(N)=O)C(C)(C)SSC1(C)C` [compound 100] (I: Ac-[Pen][NMeR]SDTL[Pen][Phe(4-COOH)][dE][dK]-NH2 / II: Ac-[Pen][NMeR]SDTL[Pen][Phe(4-COOH)][dE][dK]-NH2; disulfide I:1-I:7, II:1-II:7; linker I:10-II:10 via Diglycolyl): the IC50 was below 10 nM.
Then `CC(=O)N[C@H]1CSSC(C)(C)[C@@H](C(=O)N[C@@H](Cc2c[nH]c3ccccc23)C(=O)N[C@H](CCCCNC(=O)CCOCCOCCOCCOCCOCCOCCOCCOCCOCCOCCOCCOCCOCCOCCC(=O)NCCCC[C@@H](NC(=O)[C@H](Cc2c[nH]c3ccccc23)NC(=O)[C@H]2NC(=O)[C@H](CC(C)C)NC(=O)[C@H]([C@@H](C)O)NC(=O)[C@H](CC(=O)O)NC(=O)[C@H](CO)NC(=O)[C@H](CCCNC(=N)N)N(C)C(=O)[C@@H](NC(C)=O)CSSC2(C)C)C(N)=O)C(N)=O)NC(=O)[C@H](CC(C)C)NC(=O)[C@H]([C@@H](C)O)NC(=O)[C@H](CC(=O)O)NC(=O)[C@H](CO)NC(=O)[C@H](CCCNC(=N)N)N(C)C1=O` [compound 36] (I: Ac-C[NMeR]SDTL[Pen]W[dK]-NH2 / II: Ac-C[NMeR]SDTL[Pen]W[dK]-NH2; disulfide I:1-I:7, II:1-II:7; linker I:9-II:9 via X4), with 50 to 100 nM.
`CC(=O)N[C@@H]1C(=O)N(C)[C@@H](CCCNC(=N)N)C(=O)N[C@@H](CO)C(=O)N[C@@H](CC(=O)O)C(=O)N[C@@H]([C@@H](C)O)C(=O)N[C@@H](Cc2ccc(O)cc2)C(=O)N[C@H](C(=O)N[C@@H](Cc2ccc3ccccc3c2)C(=O)N[C@H](CCC(=O)O)C(N)=O)C(C)(C)SSC1(C)C` [compound 164] (Ac-[Pen][NMeR]SDTY[Pen][2Nal][dE]-NH2; disulfide 1-7): the IC50 lay within 1000 to 10000 nM.
Regarding `CC(=O)N[C@@H]1C(=O)N(C)[C@@H](CCCNC(=N)N)C(=O)N[C@@H](CO)C(=O)N[C@@H](CC(=O)O)C(=O)N[C@@H]([C@@H](C)O)C(=O)N[C@@H](CC(C)C)C(=O)N[C@H](C(=O)N[C@@H](Cc2ccc(-c3ccccc3)cc2)C(=O)N[C@@H](CCC(=O)O)C(=O)N(C)[C@@H](CCCCNC(=O)COCC(=O)NCCCC[C@@H](C(N)=O)N(C)C(=O)[C@H](CCC(=O)O)NC(=O)[C@H](Cc2ccc(-c3ccccc3)cc2)NC(=O)[C@H]2NC(=O)[C@H](CC(C)C)NC(=O)[C@H]([C@@H](C)O)NC(=O)[C@H](CC(=O)O)NC(=O)[C@H](CO)NC(=O)[C@H](CCCNC(=N)N)N(C)C(=O)[C@@H](NC(C)=O)C(C)(C)SSC2(C)C)C(N)=O)C(C)(C)SSC1(C)C` [compound 136] (I: Ac-[Pen][NMeR]SDTL[Pen][Bip]E[NMeK]-NH2 / II: Ac-[Pen][NMeR]SDTL[Pen][Bip]E[NMeK]-NH2; disulfide I:1-I:7, II:1-II:7; linker I:10-II:10 via Diglycolyl), the 50% inhibitory concentration (IC50) is below 10 nM.
Then `CC(=O)N[C@@H]1C(=O)N(C)[C@@H](CCCNC(=N)N)C(=O)N[C@@H](CO)C(=O)N[C@@H](CC(=O)O)C(=O)N[C@@H]([C@@H](C)O)C(=O)N[C@@H](CC(C)C)C(=O)N[C@H](C(=O)N[C@@H](Cc2cccc3ccccc23)C(=O)N[C@H](Cc2c[nH]cn2)C(=O)N[C@H](CCCCNC(=O)COCC(=O)NCCCC[C@@H](NC(=O)[C@@H](Cc2c[nH]cn2)NC(=O)[C@H](Cc2cccc3ccccc23)NC(=O)[C@H]2NC(=O)[C@H](CC(C)C)NC(=O)[C@H]([C@@H](C)O)NC(=O)[C@H](CC(=O)O)NC(=O)[C@H](CO)NC(=O)[C@H](CCCNC(=N)N)N(C)C(=O)[C@@H](NC(C)=O)C(C)(C)SSC2(C)C)C(N)=O)C(N)=O)C(C)(C)SSC1(C)C` [compound 112] (I: Ac-[Pen][NMeR]SDTL[Pen][1Nal][dH][dK]-NH2 / II: Ac-[Pen][NMeR]SDTL[Pen][1Nal][dH][dK]-NH2; disulfide I:1-I:7, II:1-II:7; linker I:10-II:10 via Diglycolyl), with 50 to 100 nM; and `CC[C@H](C)[C@@H]1NC(=O)[C@H](CCC(N)=O)NC(=O)[C@H](CO)NC(=O)[C@H](CCCNC(=N)N)N(C)C(=O)[C@@H](NC(C)=O)C(C)(C)SSC(C)(C)[C@@H](C(=O)N[C@@H](Cc2ccc(C(C)(C)C)cc2)C(=O)N[C@@H](CCC(=O)O)CC(=O)N[C@H](CCCCNC(=O)COCC(=O)NCCCC[C@@H](NC(=O)C[C@H](CCC(=O)O)NC(=O)[C@H](Cc2ccc(C(C)(C)C)cc2)NC(=O)[C@H]2NC(=O)[C@H](CCC(N)=O)NC(=O)[C@H]([C@@H](C)CC)NC(=O)[C@H](CCC(N)=O)NC(=O)[C@H](CO)NC(=O)[C@H](CCCNC(=N)N)N(C)C(=O)[C@@H](NC(C)=O)C(C)(C)SSC2(C)C)C(N)=O)C(N)=O)NC(=O)[C@H](CCC(N)=O)NC1=O` [compound 189] (I: Ac-[Pen][NMeR]SQIQ[Pen][Phe(4-tBu)][β3hE][dK]-NH2 / II: Ac-[Pen][NMeR]SQIQ[Pen][Phe(4-tBu)][β3hE][dK]-NH2; disulfide I:1-I:7, II:1-II:7; linker I:10-II:10 via Diglycolyl), with 10000 to 100000 nM.
For `CC(=O)N[C@@H]1C(=O)N(C)[C@@H](CCCNC(=N)N)C(=O)N[C@@H](CO)C(=O)N[C@@H](CC(=O)O)C(=O)N[C@@H]([C@@H](C)O)C(=O)N[C@@H](CC(C)C)C(=O)N[C@H](C(=O)N[C@@H](Cc2c[nH]c3ccccc23)C(=O)N2CCC[C@H]2C(=O)N[C@@H](CCCCNC(=O)COCC(=O)NCCCC[C@H](NC(=O)[C@@H]2CCCN2C(=O)[C@H](Cc2c[nH]c3ccccc23)NC(=O)[C@H]2NC(=O)[C@H](CC(C)C)NC(=O)[C@H]([C@@H](C)O)NC(=O)[C@H](CC(=O)O)NC(=O)[C@H](CO)NC(=O)[C@H](CCCNC(=N)N)N(C)C(=O)[C@@H](NC(C)=O)C(C)(C)SSC2(C)C)C(N)=O)C(N)=O)C(C)(C)SSC1(C)C` [compound 95] (I: Ac-[Pen][NMeR]SDTL[Pen]WPK-NH2 / II: Ac-[Pen][NMeR]SDTL[Pen]WPK-NH2; disulfide I:1-I:7, II:1-II:7; linker I:10-II:10 via Diglycolyl) the value was 100 to 500 nM.
Then `CC(=O)N[C@@H]1C(=O)N(C)[C@@H](CCCNC(=N)N)C(=O)N[C@@H](CO)C(=O)N[C@@H](CC(=O)O)C(=O)N[C@@H]([C@@H](C)O)C(=O)N[C@@H](CC(C)C)C(=O)N[C@H](C(=O)N[C@@H](Cc2c[nH]c3ccccc23)C(=O)N2Cc3ccccc3C[C@H]2C(=O)N[C@H](CCCCNC(=O)COCC(=O)NCCCC[C@@H](NC(=O)[C@@H]2Cc3ccccc3CN2C(=O)[C@H](Cc2c[nH]c3ccccc23)NC(=O)[C@H]2NC(=O)[C@H](CC(C)C)NC(=O)[C@H]([C@@H](C)O)NC(=O)[C@H](CC(=O)O)NC(=O)[C@H](CO)NC(=O)[C@H](CCCNC(=N)N)N(C)C(=O)[C@@H](NC(C)=O)C(C)(C)SSC2(C)C)C(N)=O)C(N)=O)C(C)(C)SSC1(C)C` [compound 109] (I: Ac-[Pen][NMeR]SDTL[Pen]W[Tic][dK]-NH2 / II: Ac-[Pen][NMeR]SDTL[Pen]W[Tic][dK]-NH2; disulfide I:1-I:7, II:1-II:7; linker I:10-II:10 via Diglycolyl), with 100 to 500 nM; and `CC(=O)N[C@@H]1C(=O)N(C)[C@@H](CCCNC(=N)N)C(=O)N[C@@H](CO)C(=O)N[C@@H](CC(=O)O)C(=O)N[C@@H]([C@@H](C)O)C(=O)N[C@@H](CC(C)C)C(=O)N[C@H](C(=O)N[C@@H](Cc2c[nH]cn2)C(=O)N[C@@H](Cc2ccc(O)cc2)C(=O)N[C@H](CCCCNC(=O)COCC(=O)NCCCC[C@@H](NC(=O)[C@H](Cc2ccc(O)cc2)NC(=O)[C@H](Cc2c[nH]cn2)NC(=O)[C@H]2NC(=O)[C@H](CC(C)C)NC(=O)[C@H]([C@@H](C)O)NC(=O)[C@H](CC(=O)O)NC(=O)[C@H](CO)NC(=O)[C@H](CCCNC(=N)N)N(C)C(=O)[C@@H](NC(C)=O)C(C)(C)SSC2(C)C)C(N)=O)C(N)=O)C(C)(C)SSC1(C)C` [compound 26] (I: Ac-[Pen][NMeR]SDTL[Pen]HY[dK]-NH2 / II: Ac-[Pen][NMeR]SDTL[Pen]HY[dK]-NH2; disulfide I:1-I:7, II:1-II:7; linker I:10-II:10 via Diglycolyl), with 100 to 500 nM.
Regarding `CC(=O)N[C@@H]1C(=O)N(C)[C@@H](CCCNC(=N)N)C(=O)N[C@@H](CO)C(=O)N[C@@H](CC(=O)O)C(=O)N[C@@H]([C@@H](C)O)C(=O)N[C@@H](CC(C)C)C(=O)N[C@H](C(=O)N[C@@H](Cc2cccc3ccccc23)C(=O)N[C@@H](C(=O)N[C@H](CCCCNC(=O)COCC(=O)NCCCC[C@@H](NC(=O)[C@H](NC(=O)[C@H](Cc2cccc3ccccc23)NC(=O)[C@H]2NC(=O)[C@H](CC(C)C)NC(=O)[C@H]([C@@H](C)O)NC(=O)[C@H](CC(=O)O)NC(=O)[C@H](CO)NC(=O)[C@H](CCCNC(=N)N)N(C)C(=O)[C@@H](NC(C)=O)C(C)(C)SSC2(C)C)[C@H](C)O)C(N)=O)C(N)=O)[C@H](C)O)C(C)(C)SSC1(C)C` [compound 116] (I: Ac-[Pen][NMeR]SDTL[Pen][1Nal][dT][dK]-NH2 / II: Ac-[Pen][NMeR]SDTL[Pen][1Nal][dT][dK]-NH2; disulfide I:1-I:7, II:1-II:7; linker I:10-II:10 via Diglycolyl), the IC50 fell in the range of 50 to 100 nM.
